Data on 26 molecules can be found in patent publication US6635641B2 (Agouron Pharmaceuticals, Inc., priority 2000, dated 2003).

Where a name gives a salt, the structure may show the parent alone. Read-outs that look alike come from different tables or passages of the source.

Test [1] addresses T1, unphosphorylated VEGF-R2Δ50 (FLVK) (Homo sapiens, UniProt P35968, DEL940-989/E990V).
T1 construct: VEGF-R2Δ50 contains residues 806-939 and 990-1171; made in house; host or cells: baculovirus/insect cells
Description: VEGF-R2 coupled spectrophotometric assay, unphosphorylated construct (FLVK).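 As to all read-outs here: Baculovirus-expressed cytosolic kinase domain, ADP formation linked via pyruvate kinase and lactate dehydrogenase to NADH oxidation, read as falling absorbance at 340 nm.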 The format is biochemical. The note with it: for inhibition at 0.05 µM: @ 50 nM; for FLVK percent inhibition: 0.05 µM.
Description: A construct (VEGF-R2Δ50) of the cytosolic domain of human vascular endothelial growth factor receptor 2 (VEGF-R2) lacking the 50 central residues of the 68 residues of the kinase insert domain was expressed in a baculovirus/insect cell system. […] Autophosphorylation of the purified construct was performed by incubation of the enzyme at a concentration of 4 μM in the presence of 3 mM ATP and 40 mM MgCl2 in 100 mM Hepes, pH 7.5, containing 5% glycerol and 5 mM DTT, at 4° C. for 2 h.

Test [2] deals with human umbilical vein endothelial cells (HUVEC). Description: HUVEC proliferation assay (VEGF-stimulated, MTT). The settings on record: Homo sapiens, HUVEC; read-out: HUVEC IC50. The format is cell-based. As for the experimental part:
This assay determines the ability of a test compound to inhibit the growth factor-stimulated proliferation of human umbilical vein endothelial cells (“HUVEC”). HUVEC cells (passage 3-4, Clonetics, Corp.) were thawed into EGM2 culture medium (Clonetics Corp) in T75 flasks. Fresh EGM2 medium was added to the flasks 24 hours later. Four or five days later, cells were exposed to another culture medium (F12K medium supplemented with 10% fetal bovine serum (FBS), 60 μg/ml endothelial cell growth supplement (ECGS), and 0.1 mg/ml heparin). Exponentially-growing HUVEC cells were used in experiments thereafter. Ten to twelve thousand HUVEC cells were plated in 96-well dishes in 100 μl of rich, culture medium (described above). The cells were allowed to attach for 24 hours in this medium. The medium was then removed by aspiration and 105 μl of starvation media (F12K+1% FBS) was added to each well. After 24 hours, 15 μl of test agent dissolved in 1% DMSO in starvation medium or this vehicle alone was added into each treatment well; the final DMSO concentration was 0.1%. One hour later, 30 μl of VEGF (30 ng/ml) in starvation media was added to all wells except those containing untreated controls; the final VEGF concentration was 6 ng/ml. Cellular proliferation was quantified 72 hours later by MTT dye reduction, at which time cells were exposed for 4 hours MTT (Promega Corp.). Dye reduction was stopped by addition of a stop solution (Promega Corp.) and absorbance at 595 λ was determined on a 96-well spectrophotometer plate reader.

In test [3] the target is T2, phosphorylated VEGF-R2Δ50 (FLVK-P) (Homo sapiens, UniProt P35968, DEL940-989/E990V).
T2 construct: VEGF-R2Δ50 contains residues 806-939 and 990-1171; made in house; host or cells: baculovirus/insect cells
Description: VEGF-R2 coupled spectrophotometric assay, phosphorylated construct (FLVK-P). Format: biochemical. The source says: A construct (VEGF-R2Δ50) of the cytosolic domain of human vascular endothelial growth factor receptor 2 (VEGF-R2) lacking the 50 central residues of the 68 residues of the kinase insert domain was expressed in a baculovirus/insect cell system. Of the 1356 residues of full-length VEGF-R2, VEGF-R2Δ50 contains residues 806-939 and 990-1171, and also one point mutation (E990V) within the kinase insert domain relative to wild-type VEGF-R2. See commonly assigned, co-pending U.S. patent application Ser. No. 09/390,326, filed Sep. 7, 1999, incorporated by reference herein, for discussion of VEGF constructs and expression systems. Autophosphorylation of the purified construct was performed by incubation of the enzyme at a concentration of 4 μM in the presence of 3 mM ATP and 40 mM MgCl2 in 100 mM Hepes, pH 7.5, containing 5% glycerol and 5 mM DTT, at 4° C. for 2 h. […] See Parast et al., Biochemistry, 37, 16788-16801 (1998).
The production of ADP from ATP that accompanies phosphoryl transfer was coupled to oxidation of NADH using phosphoenolpyruvate (PEP) and a system having pyruvate kinase (PK) and lactic dehydrogenase (LDH). The oxidation of NADH was monitored by following the decrease of absorbance at 340 nm (e340=6.22 cm^−1 mM^−1) using a Beckman DU 650 spectrophotometer. Assay conditions for phosphorylated VEGF-R2Δ50 (indicated as FLVK-P in the tables below) were the following: 1 mM PEP; 250 μM NADH; 50 units of LDH/mL; 20 units of PK/mL; 5 mM DTT; 5.1 mM poly(E4Y1); 1 mM ATP; and 25 mM MgCl2 in 200 mM Hepes, pH 7.5. Assay conditions for unphosphorylated VEGF-R2Δ50 (indicated as FLVK in the tables) were the following: 1 mM PEP; 250 μM NADH; 50 units of LDH/mL; 20 units of PK/mL; 5 mM DTT; 20 mM poly(E4Y1); 3 mM ATP; and 60 mM MgCl2 and 2 mM MnCl2 in 200 mM Hepes, pH 7.5. Assays were initiated with 5 to 40 nM of enzyme. Ki values were determined by measuring enzyme activity in the presence of varying concentrations of test compounds. The data were analyzed using Enzyme Kinetic and Kaleidagraph software.

The mark [4] stands for this setting: unphosphorylated VEGF-R2 construct.
Where [5] appears, read: read-out: FLVK percent inhibition.

The term Ki denotes the equilibrium dissociation constant of an inhibitor or competing ligand from its target. A high value points to a looser hold on the target. The inhibition is the share of the control response that was lost under treatment. For orientation: IC50 means the concentration needed to halve the response being measured.

T1 sequence (P35968 with tags, fused parts or gaps DEL940-989/E990V limits assumed): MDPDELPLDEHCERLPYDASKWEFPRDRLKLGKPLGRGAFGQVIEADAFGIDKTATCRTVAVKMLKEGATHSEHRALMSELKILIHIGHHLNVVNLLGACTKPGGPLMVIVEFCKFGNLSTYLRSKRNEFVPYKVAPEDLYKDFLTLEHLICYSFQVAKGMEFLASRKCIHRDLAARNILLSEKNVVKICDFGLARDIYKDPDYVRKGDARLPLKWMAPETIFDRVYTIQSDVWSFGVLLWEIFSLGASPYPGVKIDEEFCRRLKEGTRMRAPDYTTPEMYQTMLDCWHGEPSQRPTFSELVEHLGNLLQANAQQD
T2 sequence (P35968 with tags, fused parts or gaps DEL940-989/E990V limits assumed): as above

In test [1] (setting [4]), `CC(C)(C)c1cc(C(=O)Nc2cccc(CSc3ncnc4[nH]ncc34)c2)cc(C(C)(C)C)c1` [Example V-9, N-{3-[(1H-pyrazolo[3,4-d]-pyrimidin-4-yl)sulfanylmethyl]phenyl}-(3,5-di-t-butyl)benzamide] showed a Ki of 22 nM. In other words, the double-digit nanomolar range.

In the case of `O=C(Nc1cccc(CSc2ncnc3[nH]ncc23)c1)c1ccc(O)c(Br)c1` [Example V-10, 3-Bromo-4-hydroxy-N-{3-[(1H-pyrazolo[3,4-d]-pyrimidin-4-yl)sulfanylmethyl]phenyl}-benzamide], the inhibition at 50 µM in test [1] (@ 50 μM, read-out: FLVK percent inhibition) came out at 16%. `CC1CCc2cc(NC(=O)c3ccc(F)c(OCc4cncc5ccccc45)c3)ccc2N1` (stereo not drawn) [Example O-3, 4-Fluoro-N-(2-methyl-1,2,3,4-tetrahydroquinolin-6-yl)-3-(isoquinolin-4-yl-methoxy)-benzamide bistrifluoroacetic acid salt] yielded a Ki in test [1] of 5.8 nM. For `CCC(C(=O)Nc1cccc(CSc2ncnc3[nH]ncc23)c1)c1ccccc1C` (racemic) [Example V-15], the inhibition at 0.05 µM in test [1] (setting [5]) was found to be 30%. Still for that read-out and setting: in the case of `O=C(Nc1cccc2c1OC(F)(F)O2)c1cccc(CCc2cncc3ccccc23)c1` [Example O-2, N-(2,2-Difluoro-benzo[1,3]dioxol-4-yl)-3-(2-isoquinolin-4-yl-ethyl)-benzamide trifluoro-acetic acid salt] it was 13%. `CC(C)(C)c1ccc(C(=O)Nc2cccc(CSc3ncnc4[nH]ncc34)c2)cc1` [Example V-5, N-{3-[(1H-pyrazolo[3,4-d]-pyrimidin-4-yl)sulfanylmethyl]phenyl}-4-t-butylbenzamide] displayed a Ki in test [1] (setting [4]) of 1.4 nM. With `O=C(Nc1cccnc1)Nc1cccc(CSc2ncnc3[nH]ncc23)c1` [Example V-8, N-{3-[(1H-pyrazolo[3,4-d]pyrimidin-4-ylsulfanyl)methyl]phenyl}-N′-(pyridin-3-yl)urea], in test [1] (setting [5]), the inhibition at 0.05 µM was 0%. `Cc1ccc(C(=O)Nc2cccc(CSc3ncnc4[nH]ncc34)c2)cc1Br` [Example V-1] gave a Ki in test [1] of 2 nM. On to `O=C(Nc1cccc(CSc2ncnc3[nH]ncc23)c1)Nc1cc(C(F)(F)F)cc(C(F)(F)F)c1` [Example V-7, N-{3-[(1H-pyrazolo[3,4-d]pyrimidin-4-ylsulfanyl)methyl]phenyl}-N′-[3,5-bis-(trifluoromethyl)phenyl]urea], for which the Ki in test [1] (setting [4]) worked out at 2.6 nM. On to `O=C(Nc1cccc(CSc2ncnc3[nH]ncc23)c1)c1cc2cc(F)ccc2[nH]1` [Example V-12, 5-Fluoro-N-{3-[(1H-pyrazolo[3,4-d]-pyrimidin-4-yl)sulfanylmethyl]-phenyl}-indole-2-carboxamide], for which, in test [1] (setting [5]), the inhibition at 0.05 µM stood at 18%. As for `CC(C)c1cccc(NC(=O)c2cccc(CSc3cnccn3)c2)c1` [Example A-7, N-(3-Isopropylphenyl)-3-[(pyrazin-2-yl)sulfanylmethyl]benzamide], in test [2], the concentration for half-maximal inhibition (IC50) is greater than 700 nM. Besides, the affinity in test [3] corresponds to a Ki of 26 nM.

In test [1], “5-{2-[3-(Piperazin-1-yl-trifluoromethyl-phenylcarbamoyl)-phenyl]-ethyl}nicotinic acid methyl ester dihydrochloride [CC-2]” had an FLVK percent inhibition of 30% @.

As to `O=C(Nc1ccc(-n2cncn2)c(C(F)(F)F)c1)c1ccc(F)c(OCc2cccnc2)c1` [Example R-23, 4-Fluoro-3-(pyridin-3-ylmethoxy)-N-(4-[1,2,4]triazol-1-yl-3-trifluoromethyl-phenyl)-benzamide], in test [1] (setting [5]), the inhibition at 0.05 µM came to 50%. As to `O=C(Nc1ccc(N2CCNCC2)c(C(F)(F)F)c1)c1ccc(F)c(OCc2cnc3ccccc3c2)c1` [Example R-17, 4-Fluoro-N-(4-piperazin-1-yl-3-trifluoromethyl-phenyl)-3-(quinolin-3-ylmethoxy)-benzamide], the half-inhibitory concentration (IC50) in test [2] was 32 nM. In addition, the Ki in test [1] worked out at 7.4 nM.

Turning to `Cc1ccc2cc(NC(=O)c3cccc(CCc4cncc5ccccc45)c3)ccc2n1` [Example S-4, 3-(2-Isoquinolin-4-yl-ethyl)-N-(2-methyl-quinolin-6-yl)-benzamide], the IC50 in test [2] was greater than 300 nM. Also, the inhibition at 0.05 µM in test [3] (@ 50 nM, read-out: FLVK-P percent inhibition) is 20%. As for `O=C(Nc1cccc(CSc2ncnc3[nH]ncc23)c1)c1ccc2ncccc2c1` [Example V-11, N-{3-[(1H-pyrazolo[3,4-d]-pyrimidin-4-yl)sulfanylmethyl]phenyl}-quinoline-6-carboxamide], in test [1] (setting [5]), the inhibition at 0.05 µM was found to be 18%. In test [1], `COc1ccc(Nc2cc(CCc3cccc(C(=O)Nc4ccc(N5CCN(C(=O)OC(C)(C)C)CC5)c(C(F)(F)F)c4)c3)[nH]n2)cn1` [Example G-9, 3-{2-[5-(6-Methoxypyridin-3-yl)amino-2H-pyrazol-3-yl]-ethyl}-N-[4-(4-t-butoxycarbonylpiperazin-1-yl)-3-trifluoromethylphenyl]benzamide] yielded a Ki of 2.5 nM. In the case of `O=C(Nc1cccc(CSc2ncnc3[nH]ncc23)c1)c1ccc2cc[nH]c2c1` [Example V-13, N-{3-[(1H-pyrazolo[3,4-d]-pyrimidin-4-yl)sulfanylmethyl]phenyl}-indole-6-carboxamide], the inhibition at 0.05 µM in test [1] (setting [5]) amounted to 17%. On the same count and under the same terms, in the case of `O=C(Nc1cccc(CSc2ncnc3[nH]ncc23)c1)c1ccc(Oc2ccccc2)cc1` [Example V-6, N-{3-[(1H-pyrazolo[3,4-d]-pyrimidin-4-yl)sulfanylmethyl]phenyl}-(4-phenoxy)benzamide] it was 12%.

Turning to `Cc1c(Br)cc(NC(=O)c2cccc(CCc3cncc4ccccc34)c2)cc1Br` [Example S-5, N-(3,5-Dibromo-4-methyl-phenyl)-3-(2-isoquinolin-4-yl-ethyl)-benzamide], in test [2], the IC50 was greater than 300 nM. In test [3], the Ki was 4.2 nM.

As to `O=C(Nc1ccc(-n2ccnc2)c(C(F)(F)F)c1)c1ccc(F)c(OCc2cccnc2)c1` [Example R-21, 4-Fluoro-N-(4-imidazol-1-yl-3-trifluoromethyl-phenyl)-3-(pyridin-3-ylmethoxy)-benzamide], in test [1] (setting [5]), the inhibition at 0.05 µM came out at 42%. `Cc1cc(NC(=O)c2cc(CCc3cncc4ccccc34)c(F)cc2F)ccc1C(C)C` [Example S-8, 2,4-Difluoro-N-(4-isopropyl-3-methyl-phenyl)-5-(2-isoquinolin-4-yl-ethyl)-benzamide] displayed a Ki in test [1] of 1.4 nM. For `O=C(Nc1cc(Cl)c(-n2ccnc2)c(Cl)c1)c1ccc(F)c(OCc2cccnc2)c1` [Example R-24, N-(3,5-Dichloro-4-imidazol-1-yl-phenyl)-4-fluoro-3-(pyridin-3-ylmethoxy)-benzamide], the inhibition at 0.05 µM in test [1] (setting [5]) is 62%. Consider `Cl.Cl.NC(=O)c1cncc(CCc2cccc(C(=O)Nc3ccc(N4CCNCC4)c(C(F)(F)F)c3)c2)c1` [CC-1, 5-{2-[3-(Piperazin-1-yl-trifluoromethyl-phenylcarbamoyl)-phenyl]-ethyl}-nicotinamide dihydrochloride], for which, in test [1], the FLVK percent inhibition was determined as 20% @.

In test [3], `O=C(Nc1cccc(S(=O)(=O)C(F)(F)F)c1)c1cccc(CSc2ncnc3[nH]ncc23)c1` [Example B-24, 3-[(1H-Pyrazolo[3,4-d]pyrimidin-4-yl)sulfanylmethyl]-N(3-trifluoromethylsulfonylphenyl)-benzamide] showed a Ki of 37 nM. In other words, the double-digit nanomolar range. For the molecule `CC(O)c1cccc(NC(=O)c2cccc(CSc3ncnc4[nH]ncc34)c2)c1` (stereo not drawn) [Example B-22], the inhibition at 1 µM in test [3] (@ 1 μM, read-out: FLVK-P percent inhibition) turned out to be 32%.
